# Measurements published in patent US7083809B2, “Purified cytokine inhibitory factor” (Arkion Life Sciences, LLC, priority 2002, dated 2006).
# What was measured:
# [1] = 20 cancer patients, intravenous pretreatment followed by intravenous endotoxin; cited from earlier work
# PGE2 biosynthesis = experiment: Inhibition of PGE2 biosynthesis in LPS-stimulated RAW 264.7 cells (EIA); type: cell-based, mouse
# Protocol: The assay began with overnight induction of COX-2 through mitogenic (LPS) stimulation of RAW 264.7 cell monolayers. The cell monolayers were then exposed to a test article (e.g. indomethacin) for 30 min at 37° C., and then an exogenous source of arachidonic acid was provided to the system. COX1 and COX2 (in addition to a PGE2 specific synthetase) converted the exogenous arachidonic acid to PGE2. Prostaglandin E2 in the culture medium was then quantified by a commercial EIA system. When less PGE2 was recovered from culture medium containing a test article than was recovered from culture medium alone, the condition was labeled inhibition.
# Assay procedure: 5×10^6 Cells in DMEM medium were seeded and incubated in a 37° C., 5% CO2 incubator overnight. At approximately 24 h growth of cells seeded on day 1 (usually 90–100% confluence), growth medium was aseptically decanted and discarded. 10 ml sterile PBSA was gently pipetted into flasks against a non-growth surface, and the cells were washed twice. 10 ml DMEM containing LPS (2 ng/ml) was added to the tested flasks. Flasks were placed in a 37° C., 5% CO2 incubator overnight for 16 h.
# At 16 h post-initial LPS exposure, growth medium was aseptically removed (suction) and discarded. 10 ml sterile PBSA was gently pipetted into flasks against a non-growth surface, and the cells were washed twice. Cells were incubated in the presence of 2 ml PBSA, 2 ml positive control drugs, or 2 ml yolk lipids sample (1.0 mg/ml) at 37° C. After 30 min incubation, 222 μl of 300 ΞM arachidonic acid was added to every flask. Cells were incubated for an additional 15 min at 37° C. in presence of the 30 μM arachidonic acid. After the 15 min incubation, 50 μl of 1 mg/ml indomethacin was added to contents of flask to stop the reaction. All fluids from flasks were collected into appropriately labeled polypropylene tubes.
# Prostaglandin E2 was assayed with the commercial ELISA kit (Amersham RPN222) at room temperature following the standard protocol.
# TNF-α = experiment: LPS-induced cytokine mRNA inhibition assay in THP1 monocytes (RT-PCR); type: cell-based, human; details: THP1 cells, culture medium
# IL-1β = experiment: as above; type: cell-based, human; details: THP1 cells
# murine macrophage = details: cited from earlier work
compound,measurement,setting,value
CCCCCCCCCCC[C@@H](O)CC(=O)N[C@H]1[C@@H](OP(=O)(O)O)O[C@H](CO)[C@@H](OC(=O)C[C@H](O)CCCCCCCCCCC)[C@@H]1OC(=O)C[C@H](O)CCCCCCCCCCC [SDZ MRL 953],"Release of TNF-α, IL-1β, IL-8, IL-6, and G-CSF",[1],markedly reduced
CC(C)Cc1ccc(C(C)C(=O)O)cc1 (stereo not shown) [ibuprofen],Inhibition of PGE2 biosynthesis in cells (in words),PGE2 biosynthesis,inhibited
COc1ccc2c(c1)c(CC(=O)O)c(C)n2C(=O)c1ccc(Cl)cc1 [indomethacin],Inhibition of PGE2 biosynthesis in cells (in words),PGE2 biosynthesis,inhibited
lipopolysaccharide [LPS],LPS concentration of maximum induction for TNFa,TNF-α,around 0.2 mg/ml
same,LPS concentration able to induce IL-1b,IL-1β,0.008 mg/mL
CCCCCCCCCCCCCC(=O)N[C@H]1[C@H](OC[C@H]2O[C@H](OC(CC(=O)O)CC(=O)O)[C@H](NC(=O)CCCCCCCCCCCCC)[C@@H](OC(=O)CNC(=O)CCCCCCCCCCC)[C@@H]2O)O[C@H](CO)[C@@H](OP(=O)(O)O)[C@@H]1OC(=O)CNC(=O)CCCCCCCCCCC [DT-5461a],"Induction of TNF-α, IL-1β, IL-6, and GM-CSF",murine macrophage,induces
CC(=O)Oc1ccccc1C(=O)O [aspirin],Inhibition of PGE2 biosynthesis in cells (in words),PGE2 biosynthesis,inhibited
